In US8242145B2, “Cyclic diaryl ether compounds as antagonists of prostaglandin D2 receptors” (Panmira Pharmaceuticals, LLC, priority 2008, dated 2012):

Key:
[1] = target: T1, human DP1 receptor (Homo sapiens, UniProt Q13258); experiment: DP1 radioligand binding assay using [3H]BWA868C; conditions: hDP1 binding
T1 construct: tissue Biological Specialty Corporation; host or cells: human platelets, membranes
T1 sequence (Q13258 1-359): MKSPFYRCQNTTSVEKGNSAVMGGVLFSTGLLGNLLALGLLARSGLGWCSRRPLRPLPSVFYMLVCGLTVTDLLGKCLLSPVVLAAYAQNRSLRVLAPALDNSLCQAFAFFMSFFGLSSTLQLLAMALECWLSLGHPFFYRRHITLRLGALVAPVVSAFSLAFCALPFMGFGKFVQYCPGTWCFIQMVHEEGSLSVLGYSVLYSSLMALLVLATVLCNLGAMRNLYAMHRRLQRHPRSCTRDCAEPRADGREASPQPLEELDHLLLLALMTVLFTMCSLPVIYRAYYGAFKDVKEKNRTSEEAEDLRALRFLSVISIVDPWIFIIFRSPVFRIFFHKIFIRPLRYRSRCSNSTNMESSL
Method: The ability of a compound to bind to the human DP1 receptor was evaluated via a radioligand membrane binding assay using the DP1 selective synthetic ligand [^3H]BW A868C. Packed human platelets (Biological Specialty Corporation), were resuspended in 6 volumes of Hepes/HBSS buffer (10 mM Hepes, 1 mM DTT in Hanks Balanced Salt Solution (HBSS)), lysed and centrifuged at 75,000×g to pellet the membranes. Membranes were resuspended in Hepes/HBSS buffer to approximately 12 mg protein/ml. Membranes (20 μg protein/well) are incubated in 96-well plates with 2 nM [^3H]BWA868C and test compound in Assay Buffer (50 mM Hepes, 10 mM MnCl2, 1 mM EDTA, plus or minus 0.2% human serum albumin, pH 7.4) for 60 minutes at room temperature. The reactions are terminated by rapid filtration through Whatman GF/C glass fibre filter plates. The filter plates were pre-soaked in 0.33% polethylenimine for 30 minutes at room temperature then washed in Wash Buffer (50 mM Hepes, 0.5 M NaCl pH 7.4) prior to harvesting. After harvesting, the filter plates are washed 3 times with 1 ml cold Wash Buffer then dried. Scintillant is then added to the plates and the radioactivity retained on the filters is determined on a Packard TopCount (Perkin Elmer). Specific binding is determined as total radioactive binding minus non-specific binding in the presence of 10 μM BW A868C. IC50s were determined using GraphPad prism analysis of drug titration curves.

[2] = target: T2, human DP2 receptor (Homo sapiens, UniProt Q9Y5Y4); experiment: DP2/CRTH2 radioligand binding assay using [3H]PGD2; conditions: hDP2 (CRTH2) binding assay
T2 construct: expressed in transfected cells
T2 sequence (Q9Y5Y4 1-395): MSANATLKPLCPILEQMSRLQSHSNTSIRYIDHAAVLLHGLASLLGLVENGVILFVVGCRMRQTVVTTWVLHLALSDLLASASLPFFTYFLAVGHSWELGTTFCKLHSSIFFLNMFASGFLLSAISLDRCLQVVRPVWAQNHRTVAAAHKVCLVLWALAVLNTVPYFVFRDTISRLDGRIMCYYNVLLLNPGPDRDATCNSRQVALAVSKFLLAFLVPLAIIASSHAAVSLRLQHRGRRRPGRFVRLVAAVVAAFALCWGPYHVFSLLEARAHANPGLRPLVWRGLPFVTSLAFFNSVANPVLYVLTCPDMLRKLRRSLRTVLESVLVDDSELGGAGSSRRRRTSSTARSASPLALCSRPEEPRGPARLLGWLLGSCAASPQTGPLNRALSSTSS
Method: The ability of a compound to bind to the human DP2 receptor is assessed via a radioligand binding assay using [^3H]PGD2. HEK293 cells stably expressing recombinant human DP2 are resuspended in 10 mM Hepes, 7.4 containing 1 mM DTT, lysed and centrifuged at 75,000×g to pellet the membranes. The membranes are resuspended in 10 mM Hepes, 7.4 containing 1 mM DTT and 10% glycerol to approximately 5 mg protein/ml. Membranes (2-10 μg protein/well) are incubated in 96-well plates with 1 nM [^3H]PGD2 and test compound in Assay Buffer (50 mM Hepes, 10 mM MnCl2, 1 mM EDTA, plus or minus 0.2% human serum albumin, pH 7.4) for 60 minutes at room temperature. The reactions are terminated by rapid filtration through Whatman GF/C glass fibre filter plates. The filter plates were pre-soaked in 0.33% polythylenimine for 30 minutes at room temperature then washed in Wash Buffer (50 mM Hepes, 0.5 M NaCl pH 7.4) prior to harvesting. After harvesting, the filter plates are washed 3 times with 1 ml cold Wash Buffer then dried. Scintillant is then added to the plates and the radioactivity retained on the filters is determined on a Packard TopCount (Perkin Elmer). Specific binding is determined as total radioactive binding minus non-specific binding in the presence of 10 μM PGD2. IC50s were determined using GraphPad prism analysis of drug titration curves.

| IC50 [1] | IC50 [2] | SMILES |
| --- | --- | --- |
| < 300 nM | 300 to 1000 nM | C[C@H]1[C@@H](c2ccccc2)OC(=O)N1Cc1cc(-c2ccc(C(N)=O)cn2)ccc1Oc1cccc(CC(=O)O)c1 [Compound 1-68, {3-[4-(5-Carbamoyl-pyridin-2-yl)-2-((4S,5R)-4-methyl-2-oxo-5-phenyl-oxazolidin-3-ylmethyl)-phenoxy]-phenyl}-acetic acid] |
| > 1000 nM | < 300 nM | COc1ccc(CC(=O)O)cc1Oc1ccc(-c2ccc(S(C)(=O)=O)cc2)cc1CN1CCOC1=O [Compound 1-92, {3-[4′-Methanesulfonyl-3-(2-oxo-oxazolidin-3-ylmethyl)-biphenyl-4-yloxy]-4-methoxy-phenyl}-acetic acid] |
| > 1000 nM | < 300 nM | COc1ccc(CC(=O)O)cc1Oc1ccc(-c2ccccc2S(C)(=O)=O)cc1CN1CCOC1=O [Compound 1-94, {3-[2′-Methanesulfonyl-3-(2-oxo-oxazolidin-3-ylmethyl)-biphenyl-4-yloxy]-4-methoxy-phenyl}-acetic acid] |
| > 1000 nM | > 1000 nM | COc1ccc(CC(=O)O)cc1Oc1ccc(Br)cc1CN1CCN(C)C1=O [Compound 3-4, {3-[4-Bromo-2-(3-methyl-2-oxo-imidazolidin-1-ylmethyl)-phenoxy]-4-methoxy-phenyl}-acetic acid] |
| > 1000 nM | > 1000 nM | O=C(O)Cc1cccc(Oc2ccc(F)cc2CN2CCOC2=O)c1 [Compound 1-2, {3-[4-Fluoro-2-(2-oxo-oxazolidin-3-ylmethyl)-phenoxy]-phenyl}-acetic acid] |
| > 1000 nM | < 300 nM | Cc1ncc(-c2ccc(Oc3cccc(CC(=O)O)c3)c(CN3C(=O)O[C@H](c4ccccc4)[C@@H]3C)c2)[nH]1 [Compound 1-23, {3-[4-(2-Methyl-3H-imidazol-4-yl)-2-((4S,5R)-4-methyl-2-oxo-5-phenyl-oxazolidin-3-ylmethyl)-phenoxy]-phenyl}-acetic acid] |
| > 1000 nM | 300 to 1000 nM | COc1ccc(CC(=O)O)cc1Oc1ccc(Br)cc1CN1CCNC1=O [Compound 3-3, {3-[4-Bromo-2-(2-oxo-imidazolidin-1-ylmethyl)-phenoxy]-4-methoxy-phenyl}-acetic acid] |
| > 1000 nM | < 300 nM | Cc1c[nH]c(-c2ccc(Oc3cccc(CC(=O)O)c3)c(CN3C(=O)O[C@H](c4ccccc4)[C@@H]3C)c2)n1 [Compound 1-72, {3-[4-(4-Methyl-1H-imidazol-2-yl)-2-((4S,5R)-4-methyl-2-oxo-5-phenyl-oxazolidin-3-ylmethyl)-phenoxy]-phenyl}-acetic acid] |
| 300 to 1000 nM | 300 to 1000 nM | Cc1ncc(-c2ccc(Oc3cccc(CC(=O)O)c3)c(CN3C(=O)O[C@H](c4ccccc4)[C@@H]3C)c2)n1C [Compound 1-71, {3-[4-(2,3-Dimethyl-3H-imidazol-4-yl)-2-((4S,5R)-4-methyl-2-oxo-5-phenyl-oxazolidin-3-ylmethyl)-phenoxy]-phenyl}-acetic acid] |
| > 1000 nM | < 300 nM | COc1ccc(CC(=O)O)cc1Oc1ccc(-c2ccccc2)cc1CN1CCOC1=O [Compound 1-95, {4-Methoxy-3-[3-(2-oxo-oxazolidin-3-ylmethyl)-biphenyl-4-yloxy]-phenyl}-acetic acid] |
| > 1000 nM | 300 to 1000 nM | Cc1ccc(Oc2cccc(CC(=O)O)c2)c(CN2CCOC2=O)c1 [Compound 1-4, {3-[4-Methyl-2-(2-oxo-oxazolidin-3-ylmethyl)-phenoxy]-phenyl}-acetic acid] |
| < 300 nM | < 300 nM | C[C@H]1[C@@H](c2ccccc2)OC(=O)N1Cc1cc(-c2nccs2)ccc1Oc1cccc(CC(=O)O)c1 [Compound 1-74, {3-[2-((4S,5R)-4-Methyl-2-oxo-5-phenyl-oxazolidin-3-ylmethyl)-4-thiazol-2-yl-phenoxy]-phenyl}-acetic acid] |
| < 300 nM | < 300 nM | C[C@H]1[C@@H](c2ccccc2)OC(=O)N1Cc1cc(-c2ccccn2)ccc1Oc1cccc(CC(=O)O)c1 [Compound 1-19, {3-[2-((4S,5R)-4-Methyl-2-oxo-5-phenyl-oxazolidin-3-ylmethyl)-4-pyridin-2-yl-phenoxy]-phenyl}-acetic acid] |
